Where two headings read alike, the source gives them in different places. Where a SMILES comes first, the peptide text is derived from it. [ ]: non-standard residue; d: D form. The star is where a group is joined. Desaminotyrosyl = O=C(CCc1ccc(O)cc1)*; Cya = N[C@@H](CS(=O)(=O)O)C(=O)O
Assays:
[1] = test system: bovine anterior pituitary cell culture; assay type: cell-based
[2] = proteolytic stability in bovine plasma (HPLC, modified Frohman method); conditions: bovine plasma
[3] = another assay, potency as a fraction of bGRF(1-44)NH₂

| Compound | remaining at 1 h [2] | the potency of bGRF(1-44)NH₂ [1] | the potency of bGRF(1-44)NH₂ [1, 3] | potency (in words) ([1]; contemplated, compound not tested) |
| --- | --- | --- | --- | --- |
| CC[C@H](C)[C@H](NC(=O)[C@H](C)NC(=O)[C@H](CS(=O)(=O)O)NC(=O)[C@H](C)NC(=O)[C@@H](N)Cc1ccc(O)cc1)C(=O)N[C@@H](Cc1ccccc1)C(=O)N[C@H](C(=O)N[C@@H](CC(N)=O)C(=O)N[C@@H](CO)C(=O)N[C@@H](Cc1ccc(O)cc1)C(=O)N[C@@H](CCCNC(=N)N)C(=O)N[C@@H](CCCCN)C(=O)N[C@H](C(=O)N[C@@H](CC(C)C)C(=O)NCC(=O)N[C@@H](CCC(N)=O)C(=O)N[C@@H](CC(C)C)C(=O)N[C@@H](CO)C(=O)N[C@@H](C)C(=O)N[C@@H](CCCNC(=N)N)C(=O)N[C@@H](CCCCN)C(=O)N[C@@H](CC(C)C)C(=O)N[C@@H](CC(C)C)C(=O)N[C@@H](CCC(N)=O)C(=O)N[C@@H](CS(=O)(=O)O)C(=O)N[C@H](C(=O)N[C@@H](CC(C)C)C(=O)N[C@@H](CC(N)=O)C(=O)N[C@@H](CCCNC(=N)N)C(=O)N[C@@H](CCC(N)=O)C(=O)N[C@@H](CCC(N)=O)C(=O)NCC(N)=O)[C@@H](C)CC)C(C)C)[C@@H](C)O [Compound 2, Cya^3,25, Leu²⁷bGRF(1-32)NH₂] (H-YA[Cya]AIFTNSYRKVLGQLSARKLLQ[Cya]ILNRQQG-NH2) | – | 0.11 | – | – |
| CC[C@H](C)[C@H](NC(=O)[C@H](C)NC(=O)[C@H](CS(=O)(=O)O)NC(=O)[C@@H](C)NC(=O)CCc1ccc(O)cc1)C(=O)N[C@@H](Cc1ccccc1)C(=O)N[C@H](C(=O)N[C@@H](CC(N)=O)C(=O)N[C@@H](CO)C(=O)N[C@@H](Cc1ccc(O)cc1)C(=O)N[C@@H](CCCNC(=N)N)C(=O)N[C@@H](CCCCN)C(=O)N[C@H](C(=O)N[C@@H](CC(C)C)C(=O)N[C@@H](C)C(=O)N[C@@H](CCC(N)=O)C(=O)N[C@@H](CC(C)C)C(=O)N[C@@H](CO)C(=O)N[C@@H](C)C(=O)N[C@@H](CCCNC(=N)N)C(=O)N[C@@H](CCCCN)C(=O)N[C@@H](CC(C)C)C(=O)N[C@@H](CC(C)C)C(=O)N[C@@H](CCC(N)=O)C(=O)N[C@@H](CC(=O)O)C(=O)N[C@H](C(=O)N[C@@H](CC(C)C)C(=O)N[C@@H](CC(N)=O)C(=O)N[C@@H](CCCNC(=N)N)C(=O)N[C@@H](CCC(N)=O)C(=O)N[C@@H](CCC(N)=O)C(=O)NCC(N)=O)[C@@H](C)CC)C(C)C)[C@@H](C)O [Compound 10, Desamino-Tyr¹, D-Ala², Cya³, Ala¹⁵, Leu²⁷-bGRF(1-32)NH₂] (Desaminotyrosyl-[dA][Cya]AIFTNSYRKVLAQLSARKLLQDILNRQQG-NH2) | – | 1.40 | – | – |
| DesaminoTyr¹, Cya³, Ser⁸, Arg¹², Ala¹⁵, Arg²¹, Leu²⁷, Ser²⁸, Hse³³ bGRF(1-33)lactone [Compound 20] | – | – | – | high potency |

More lines, main results first:

| remaining at 1 h [2] | Compound | the potency of bGRF(1-44)NH₂ [1] | the potency of bGRF(1-44)NH₂ [1, 3] | potency (in words) ([1]; contemplated, compound not tested) |
| --- | --- | --- | --- | --- |
| 76% | CC[C@H](C)[C@H](NC(=O)[C@H](C)NC(=O)[C@H](CS(=O)(=O)O)NC(=O)[C@H](C)NC(=O)CCc1ccc(O)cc1)C(=O)N[C@@H](Cc1ccccc1)C(=O)N[C@H](C(=O)N[C@@H](CC(N)=O)C(=O)N[C@@H](CO)C(=O)N[C@@H](Cc1ccc(O)cc1)C(=O)N[C@@H](CCCNC(=N)N)C(=O)N[C@@H](CCCCN)C(=O)N[C@H](C(=O)N[C@@H](CC(C)C)C(=O)NCC(=O)N[C@@H](CCC(N)=O)C(=O)N[C@@H](CC(C)C)C(=O)N[C@@H](CO)C(=O)N[C@@H](C)C(=O)N[C@@H](CCCNC(=N)N)C(=O)N[C@@H](CCCCN)C(=O)N[C@@H](CC(C)C)C(=O)N[C@@H](CC(C)C)C(=O)N[C@@H](CCC(N)=O)C(=O)N[C@@H](CC(=O)O)C(=O)N[C@H](C(=O)N[C@@H](CC(C)C)C(=O)N[C@@H](CC(N)=O)C(=O)N[C@@H](CCCNC(=N)N)C(=O)N[C@@H](CCC(N)=O)C(=O)N[C@@H](CCC(N)=O)C(=O)NCC(N)=O)[C@@H](C)CC)C(C)C)[C@@H](C)O [Compound 5, Desamino-Tyr¹, Cya³, Leu²⁷-bGRF(1-32)NH₂] (Desaminotyrosyl-A[Cya]AIFTNSYRKVLGQLSARKLLQDILNRQQG-NH2) | 1.01 | – | – |
| 51% | CC[C@H](C)[C@H](NC(=O)[C@H](C)NC(=O)[C@H](CS(=O)(=O)O)NC(=O)[C@@H](C)NC(=O)CCc1ccc(O)cc1)C(=O)N[C@@H](Cc1ccccc1)C(=O)N[C@H](C(=O)N[C@@H](CC(N)=O)C(=O)N[C@@H](CO)C(=O)N[C@@H](Cc1ccc(O)cc1)C(=O)N[C@@H](CCCNC(=N)N)C(=O)N[C@@H](CCCCN)C(=O)N[C@H](C(=O)N[C@@H](CC(C)C)C(=O)NCC(=O)N[C@@H](CCC(N)=O)C(=O)N[C@@H](CC(C)C)C(=O)N[C@@H](CO)C(=O)N[C@@H](C)C(=O)N[C@@H](CCCNC(=N)N)C(=O)N[C@@H](CCCCN)C(=O)N[C@@H](CC(C)C)C(=O)N[C@@H](CC(C)C)C(=O)N[C@@H](CCC(N)=O)C(=O)N[C@@H](CC(=O)O)C(=O)N[C@H](C(=O)N[C@@H](CC(C)C)C(=O)N[C@@H](CC(N)=O)C(=O)N[C@@H](CCCNC(=N)N)C(=O)N[C@@H](CCC(N)=O)C(=O)N[C@@H](CCC(N)=O)C(=O)NCC(N)=O)[C@@H](C)CC)C(C)C)[C@@H](C)O [Compound 6, Desamino-Tyr¹, D-Ala²,, Cya³, Leu²⁷-bGRF(1-32)NH₂] (Desaminotyrosyl-[dA][Cya]AIFTNSYRKVLGQLSARKLLQDILNRQQG-NH2) | 0.26 | – | – |
| 67% | CC[C@H](C)[C@H](NC(=O)[C@H](C)NC(=O)[C@H](CS(=O)(=O)O)NC(=O)[C@H](C)NC(=O)CCc1ccc(O)cc1)C(=O)N[C@@H](Cc1ccccc1)C(=O)N[C@H](C(=O)N[C@@H](CO)C(=O)N[C@@H](CO)C(=O)N[C@@H](Cc1ccc(O)cc1)C(=O)N[C@@H](CCCNC(=N)N)C(=O)N[C@@H](CCCNC(=N)N)C(=O)N[C@H](C(=O)N[C@@H](CC(C)C)C(=O)N[C@@H](C)C(=O)N[C@@H](CCC(N)=O)C(=O)N[C@@H](CC(C)C)C(=O)N[C@@H](CO)C(=O)N[C@@H](C)C(=O)N[C@@H](CCCNC(=N)N)C(=O)N[C@@H](CCCNC(=N)N)C(=O)N[C@@H](CC(C)C)C(=O)N[C@@H](CC(C)C)C(=O)N[C@@H](CCC(N)=O)C(=O)N[C@@H](CC(=O)O)C(=O)N[C@H](C(=O)N[C@@H](CC(C)C)C(=O)N[C@@H](CO)C(=O)N[C@@H](CCCNC(=N)N)C(=O)N[C@@H](CCC(N)=O)C(=O)N[C@@H](CCC(N)=O)C(=O)NCC(N)=O)[C@@H](C)CC)C(C)C)[C@@H](C)O [Compound 12, DesaminoTyr¹, Cya³, Ser⁸, Arg¹², Ala¹⁵, Leu²⁷, Ser²⁸, bGRF(1-32)NH₂] (Desaminotyrosyl-A[Cya]AIFTSSYRRVLAQLSARRLLQDILSRQQG-NH2) | – | 0.54 | – |
| 65% | CC[C@H](C)[C@H](NC(=O)[C@H](C)NC(=O)[C@H](CC(=O)O)NC(=O)[C@H](C)NC(=O)CCc1ccc(O)cc1)C(=O)N[C@@H](Cc1ccccc1)C(=O)N[C@H](C(=O)N[C@@H](CO)C(=O)N[C@@H](CO)C(=O)N[C@@H](Cc1ccc(O)cc1)C(=O)N[C@@H](CCCNC(=N)N)C(=O)N[C@@H](CCCNC(=N)N)C(=O)N[C@H](C(=O)N[C@@H](CC(C)C)C(=O)N[C@@H](C)C(=O)N[C@@H](CCC(N)=O)C(=O)N[C@@H](CC(C)C)C(=O)N[C@@H](CO)C(=O)N[C@@H](C)C(=O)N[C@@H](CCCNC(=N)N)C(=O)N[C@@H](CCCNC(=N)N)C(=O)N[C@@H](CC(C)C)C(=O)N[C@@H](CC(C)C)C(=O)N[C@@H](CCC(N)=O)C(=O)N[C@@H](CS(=O)(=O)O)C(=O)N[C@H](C(=O)N[C@@H](CC(C)C)C(=O)N[C@@H](CO)C(=O)N[C@@H](CCCNC(=N)N)C(=O)N[C@@H](CCC(N)=O)C(=O)N[C@@H](CCC(N)=O)C(=O)NCC(N)=O)[C@@H](C)CC)C(C)C)[C@@H](C)O [Compound 14, DesaminoTyr¹, Ser⁸, Arg¹², Ala¹⁵, Cya²⁵, Leu²⁷, Ser²⁸, bGRF(1-32)NH₂] (Desaminotyrosyl-ADAIFTSSYRRVLAQLSARRLLQ[Cya]ILSRQQG-NH2) | – | 1.21 | – |

Source: patent EP0326418A1, “GRF analogs” (THE UPJOHN COMPANY, priority 1988, dated 1989)
